According to ChEMBL document CHEMBL6092181, “Design, synthesis, and biological evaluation of imidazo[4,5-b]pyridine mitochondrial uncouplers for the treatment of metabolic dysfunction-associated steatohepatitis (MASH)” (Eur J Med Chem, 2024):
The source made the active and inactive calls. No cut-off for these calls is given here.

Legend:
[1] = system: L6; assay: Uncoupling activity in rat L6 myoblasts assessed as oxygen consumption rate incubated for 2 mins relative to N5,N6-bis(2-fluorophenyl)-[1,2,5]oxadiazolo[3,4-b]pyrazine-5,6-diamine; type: functional
[2] = system: L6; assay: Uncoupling activity in rat L6 myoblasts assessed as oxygen consumption rate incubated over 90 mins; type: functional, cell-based
[3] = Half-life in C57BL/6 mouse at 10 mg/kg, po by LC-MS/MS method; type: ADME, organism-based; conditions: in vivo
[4] = Cmax in C57BL/6 mouse at 10 mg/kg, po by LC-MS/MS method; type: ADME, organism-based; conditions: in vivo
[5] = system: L6; assay: Cytotoxicity against rat L6 cells; type: toxicity, cell-based
[6] = system: Mus musculus; assay: Anti-MASH activity in GAN-diet induced metabolic dysfunction associated steatohepatitis in C57BL/6 mouse assessed as change in liver size at 100 to 300 mg/kg, po administered daily measured after 4 weeks; type: functional, organism-based; conditions: dose 100-300 mg/kg
[7] = Induction of respiration in rat L6 cells assessed as oxygen consumption rate at 3.3 uM; type: functional
[8] = system: L6; assay: Uncoupling activity in rat L6 cells assessed as increase in oxygen consumption rate incubated for 40 mins in presence of rotenone; type: functional, cell-based
[9] = Toxicity in C57BL/6 mouse assessed as change in appetite at 30 to 1000 mg/kg, po measured after 24 hrs; type: organism-based; conditions: in vivo, dose 30-1000 mg/kg
[10] = Toxicity in C57BL/6 mouse assessed as adverse effect at 30 to 1000 mg/kg, po measured after 24 hrs; type: organism-based; conditions: in vivo, dose 30-1000 mg/kg
[11] = system: Mus musculus; assay: Anti-MASH activity in GAN-diet induced metabolic dysfunction associated steatohepatitis in C57BL/6 mouse assessed as decrease in liver triglyceride level at 100 to 300 mg/kg, po administered daily measured after 4 weeks; type: functional, organism-based; conditions: dose 100-300 mg/kg
[12] = system: Mus musculus; assay: Anti-MASH activity in GAN-diet induced metabolic dysfunction associated steatohepatitis in C57BL/6 mouse assessed as change in plasma triglyceride level at 100 to 300 mg/kg, po administered daily measured after 4 weeks; type: functional, organism-based; conditions: dose 100-300 mg/kg
[13] = Toxicity in C57BL/6 mouse assessed as change in body temperature at 30 to 1000 mg/kg, po measured after 24 hrs; type: organism-based; conditions: in vivo, dose 30-1000 mg/kg
[14] = system: Mus musculus; assay: Anti-MASH activity in GAN-diet induced metabolic dysfunction associated steatohepatitis in C57BL/6 mouse assessed as change in plasma cholesterol level at 100 to 300 mg/kg, po administered daily measured after 4 weeks; type: functional, organism-based; conditions: dose 100-300 mg/kg
[15] = Induction of respiration in rat L6 cells assessed as oxygen consumption rate at 3.3 uM pretreated with compound followed by N5,N6-bis(2-fluorophenyl)-[1,2,5]oxadiazolo[3,4-b]pyrazine-5,6-diamine addition; type: functional
[16] = Half-life in C57BL/6 mouse at 30 mg/kg, po by LC-MS/MS method; type: ADME, organism-based; conditions: in vivo
[17] = Toxicity in C57BL/6 mouse assessed as change in body weight at 100 to 300 mg/kg, po administered daily and measured after 31 days; type: organism-based; conditions: in vivo, 744 h, dose 100-300 mg/kg, time 31 day
[18] = Cmax in C57BL/6 mouse at 30 mg/kg, po by LC-MS/MS method; type: ADME, organism-based; conditions: in vivo
[19] = Toxicity in C57BL/6 mouse assessed as change in body weight at 30 to 1000 mg/kg, po measured after 24 hrs; type: organism-based; conditions: in vivo, dose 30-1000 mg/kg
[20] = system: L6; assay: Uncoupling activity in rat L6 cells assessed as increase in oxygen consumption rate incubated for 40 mins in presence of antimycin A; type: functional, cell-based
[21] = Rattus norvegicus, L6, 1.5 h, read-out: EC50

SMILES | Activity [1] | EC50 [2, 21] | other results
Fc1ccccc1-c1ccc2nc(C(F)(F)F)[nH]c2n1 | 35% | 16 µM | –
Fc1cc(F)cc(-c2ccc3nc(C(F)(F)F)[nH]c3n2)c1 | 32% | 3.8 µM | –
FC(F)(F)c1cc(-c2ccnc3[nH]c(C(F)(F)F)nc23)cc(C(F)(F)F)c1 | 45% | > 100 µM | –
FC(F)(F)Oc1ccc(-c2ccnc3[nH]c(C(F)(F)F)nc23)cc1 | 19% | 0.48 µM | –
Fc1ccc(-c2ccnc3[nH]c(C(F)(F)F)nc23)cc1 | 6% | 4.4 µM | –
Fc1ccccc1Oc1ccc2nc(C(F)(F)F)[nH]c2n1 | 30% | 30.8 µM | –
FC(F)(F)c1cccc(Oc2ccnc3[nH]c(C(F)(F)F)nc23)c1 | 20% | 3.7 µM | –
FC(F)(F)c1ccc(-c2ccnc3[nH]c(C(F)(F)F)nc23)cn1 | 25% | 2.6 µM | –
FC(F)(F)c1ccc(-c2ccnc3[nH]c(C(F)(F)C(F)(F)F)nc23)cc1 | 31% | 4.69 µM | –
Fc1cccc(-c2ccnc3[nH]c(C(F)(F)F)nc23)c1 | 32% | 8.2 µM | –
Fc1cccc(Oc2ccc3nc(C(F)(F)F)[nH]c3n2)c1F | 39% | 7.1 µM | –
FC(F)(F)c1cccc(-c2ncnc3[nH]c(C(F)(F)F)nc23)c1 | 46% | 1.2 µM | –
FC(F)(F)c1nc2c(-c3cccc(Cl)c3)ccnc2[nH]1 | 32% | 2 µM | half-life [3]: 3 h; Cmax [4]: 18 µM
FC(F)(F)c1nc2c(-c3ccc(Cl)cc3)ccnc2[nH]1 | 22% | > 100 µM | –
Fc1cc(F)cc(-c2ccnc3[nH]c(C(F)(F)F)nc23)c1 | 42% | 1.5 µM | half-life [3]: 2.8 h; Cmax [4]: 37 µM
Fc1ccc(F)c(-c2ccnc3[nH]c(C(F)(F)F)nc23)c1 | 54% | 15 µM | –
FC(F)(F)c1nc2c(Cl)ccnc2[nH]1 | 14% | 29.8 µM | –
COc1ccc(-c2ccnc3[nH]c(C(F)(F)F)nc23)cc1 | – | – | EC50 ([2]; l6): Not_active
FC(F)(F)Oc1cccc(-c2ccc3nc(C(F)(F)F)[nH]c3n2)c1 | 8% | 1.4 µM | –
FC(F)(F)c1nc2c(-c3ccccc3)ccnc2[nH]1 | – | – | EC50 ([2]; l6): Not_active
Fc1cccc(Oc2ccc3nc(C(F)(F)F)[nH]c3n2)c1 | 47% | 10.3 µM | –
Fc1ccc(-c2ccnc3[nH]c(C(F)(F)F)nc23)cc1F | 34% | 4.4 µM | –
Fc1ccc(Oc2ccc3nc(C(F)(F)F)[nH]c3n2)c(F)c1 | 43% | 12.6 µM | –
Fc1cc(F)cc(-c2ncnc3[nH]c(C(F)(F)F)nc23)c1 | 54% | 4 µM | –

SMILES | Activity [1] | EC50 [2, 21] | other results
FC(F)(F)c1cccc(-c2ccnc3[nH]c(C(F)(F)F)nc23)c1 | 42% | 0.85 µM | half-life [3]: 5.5 h; Cmax [4]: 28 µM
FC(F)(F)c1ccc(-c2ccnc3[nH]c(C(F)(F)F)nc23)cc1 | 46% | 1.3 µM | half-life [3]: 3.4 h; Cmax [4]: 8 µM
Fc1cc(F)cc(Oc2ccnc3[nH]c(C(F)(F)F)nc23)c1 | 43% | 11.9 µM | –
CC(=O)c1ccc(-c2ccnc3[nH]c(C(F)(F)F)nc23)cc1 | 21% | > 100 µM | –
FC(F)(F)c1cccc(Oc2ccc3nc(C(F)(F)F)[nH]c3n2)c1 | 19% | 1.8 µM | –
Fc1ccccc1-c1ccnc2[nH]c(C(F)(F)F)nc12 | 18% | 19.4 µM | –
CC(F)(F)c1nc2c(-c3ccc(C(F)(F)F)cc3)ccnc2[nH]1 | – | – | EC50 ([2]; l6): Not_active
FC(F)c1nc2c(-c3ccc(C(F)(F)F)cc3)ccnc2[nH]1 | – | – | EC50 ([2]; l6): Not_active
FC(F)(F)c1ccc(-c2ncnc3[nH]c(C(F)(F)F)nc23)cc1 | 45% | 1.2 µM | –
Fc1ccc(-c2ccnc3[nH]c(C(F)(F)F)nc23)c(F)c1 | 36% | 11 µM | –
FC(F)(F)c1ccc(-c2ccc3nc(C(F)(F)F)[nH]c3n2)cn1 | 47% | 11.9 µM | –
Oc1ccc(-c2ccnc3[nH]c(C(F)(F)F)nc23)cc1 | – | – | EC50 ([2]; l6): Not_active
FC(F)(F)Oc1ccc(-c2ccc3nc(C(F)(F)F)[nH]c3n2)cc1 | 2% | 1.3 µM | –
FC(F)(F)c1cccc(-c2ccc3nc(C(F)(F)F)[nH]c3n2)c1 | 36% | 3 µM | –
Fc1ccccc1Oc1ccnc2[nH]c(C(F)(F)F)nc12 | 12% | 58 µM | –
Cc1ccnc2[nH]c(C(F)(F)F)nc12 | – | – | EC50 ([2]; l6): Not_active
FC(F)(F)c1nc2c(-c3cc(Cl)cc(Cl)c3)ccnc2[nH]1 | 76% | 1.1 µM | half-life [3]: 25.3 h; Cmax [4]: 13 µM
FC(F)(F)c1cc(-c2ncnc3[nH]c(C(F)(F)F)nc23)cc(C(F)(F)F)c1 | – | – | Activity [5]: Toxic
Fc1ccc(-c2ccc3nc(C(F)(F)F)[nH]c3n2)cc1 | 42% | 15 µM | –
FC(F)(F)Oc1cccc(-c2ccnc3[nH]c(C(F)(F)F)nc23)c1 | 41% | 0.83 µM | half-life [3]: 1.3 h; Activity [6]: inactive; Activity [7]: 200%; Activity [8]: inactive; Activity [9]: Non-toxic; Activity [10]: Non-toxic; Activity [11]: Active; Activity [12]: inactive; Activity [13]: Non-toxic; Activity [14]: inactive; Activity [15]: 300%; half-life [16]: 3.7 h; Activity [17]: Non-toxic; Cmax [4]: 22 µM; Cmax [18]: 34.7 µM; Activity [19]: Non-toxic; Activity [20]: inactive
Fc1cc(F)cc(Oc2ccc3nc(C(F)(F)F)[nH]c3n2)c1 | 45% | 3.9 µM | –
FC(F)(F)c1ccc(-c2ccc3nc(C(F)(F)F)[nH]c3n2)cc1 | 11% | 1 µM | –
Cc1ccc(-c2ccnc3[nH]c(C(F)(F)F)nc23)cc1 | – | – | EC50 ([2]; l6): Not_active
